Source: patent EP0095292A1, “5-(2-halogenovinyl)-2'-deoxyuridine derivatives, processes for their preparation, pharmaceutical compositions containing them, and their use in treating viral infections"” (BEECHAM GROUP PLC, priority 1982, dated 1983)
Where two headings read alike, the source gives them in different places.

Legend:
[1] = Cytotoxicity observed in the plaque reduction assay cultures; assay type: cell-based; details: african green monkey, vero cells; minimum concentration of test compound which caused cytotoxicity; virus-infected Vero cultures, 4 days; read-out: MTD
Method: (§1) Vero (African Green Monkey Kidney) cells were grown to confluence in 24 well multidishes, each well being 1.6 cm in diameter. The cells were infected with Herpes simplex type 1 virus (HFEM strain) and overlaid with 0.5 mL of 0.9% agarose (w/v) in maintenance medium. Test compounds prepared in maintenance medium in concentrations ranging from […] in half-log dilution steps, were added in 0.5 mL volume. The virus infected cultures were then incubated at 37^0CC for 4 days before fixing in 4% formaldehyde solution and staining with carbolfuchsin.

[2] = system: Herpes simplex type 1 virus (HFEM strain); assay: Plaque reduction assay in virus-infected Vero cells (agarose overlay, 4 days); assay type: cell-based; details: Human alphaherpesvirus 1, 96 h, concentration causing a 50% reduction in the number of virus plaques, 4 days incubation, read-out: PDD50 (the source's name)
Method: as §1

## O=C(OC[C@H]1O[C@@H](n2cc(/C=C/Br)c(=O)[nH]c2=O)C[C@@H]1O)OC[C@H]1O[C@@H](n2cc(/C=C/Br)c(=O)[nH]c2=O)C[C@@H]1O [Example 1, bis-[5-(E-2-Bromovinyl)-2'-deoxyuridin-5'-yl] carbonate]
[1]
  MCC at 96 h: 100 µg/mL
[2]; molar units
  IC50: 2.1 µM
[2]
  IC50: 1.5 µg/mL

## CC(=O)O[C@H]1C[C@H](n2cc(/C=C/Br)c(=O)[nH]c2=O)O[C@@H]1COC(=O)OC[C@H]1O[C@@H](n2cc(/C=C/Br)c(=O)n(C(C)=O)c2=O)C[C@@H]1OC(C)=O [Example 2, 3',3'-Q-3-Triacetyl-bis-[5-(E-2-bromovinyl)-2'-deoxyuridin-5'-yl] carbonate]
[1]
  MCC at 96 h: 100 µg/mL
[2]; molar units
  IC50: 15.1 µM
[2]
  IC50: 12.4 µg/mL

## CC(=O)O[C@H]1C[C@H](n2cc(/C=C/Br)c(=O)[nH]c2=O)O[C@@H]1COC(=O)OC[C@H]1O[C@@H](n2cc(/C=C/Br)c(=O)[nH]c2=O)C[C@@H]1OC(C)=O [Example 3, bis-[3'-O-Acetyl-5-(E-2-bromovinyl)-2'-deoxyuridin-5'-yl] carbonate]
[1]
  MCC at 96 h: 100 µg/mL
[2]; molar units
  IC50: 10.9 µM
[2]
  IC50: 8.5 µg/mL

## O=C(O[C@H]1C[C@H](n2cc(/C=C/Br)c(=O)[nH]c2=O)O[C@@H]1CO)O[C@H]1C[C@H](n2cc(/C=C/Br)c(=O)[nH]c2=O)O[C@@H]1CO [Example 4, bis-[5-(E-2-Bromovinyl)-2'-deoxyuridin-3'-yl] carbonate]
[1]
  MCC at 96 h: 100 µg/mL
[2]; molar units
  IC50: 0.5 µM
[2]
  IC50: 0.34 µg/mL

## O=C(n1c(=O)c(/C=C/Br)cn([C@H]2C[C@H](O)[C@@H](CO)O2)c1=O)n1c(=O)c(/C=C/Br)cn([C@H]2C[C@H](O)[C@@H](CO)O2)c1=O [Example 5, 3,3-Carbonyl-bis-[5-(E-2-bromovinyl)-2'-deoxyuridine]]
[1]
  MCC at 96 h: 100 µg/mL
[2]; molar units
  IC50: 0.1 µM
[2]
  IC50: 0.07 µg/mL

## O=C(CCC(=O)OC[C@H]1O[C@@H](n2cc(/C=C/Br)c(=O)[nH]c2=O)C[C@@H]1O)OC[C@H]1O[C@@H](n2cc(/C=C/Br)c(=O)[nH]c2=O)C[C@@H]1O [Example 6, bis-[5-(E-2-Bromovinyl)-2'-deoxyuridin-5'-yl] succinate]
[1]
  MCC at 96 h: 100 µg/mL
[2]; molar units
  IC50: 6.4 µM
[2]
  IC50: 4.8 µg/mL

## O=C(CCCCCCCCC(=O)OC[C@H]1O[C@@H](n2cc(/C=C/Br)c(=O)[nH]c2=O)C[C@@H]1O)OC[C@H]1O[C@@H](n2cc(/C=C/Br)c(=O)[nH]c2=O)C[C@@H]1O [Example 7, bis-[5-(E-2-Bromovinyl)-2'-deoxyuridin-5'-yl] sebacate]
[1]
  MCC at 96 h: 100 µg/mL
[2]; molar units
  IC50: 0.14 µM
[2]
  IC50: 0.12 µg/mL
